Data from patent US20080076166A1, “Method For Producing Polyunsaturated Fatty Acids In Transgenic Organisms” (priority 2004, published 2008).
Where two headings read alike, the source gives them in different places.

Assays:
[1] = system: desaturase OtDes6.1 (Δ6-desaturase); format: cell-based, Ostreococcus tauri; details: for Activity in %: yeast transformed with pYES2-OtDes6.1, conversion rate [substrate/(substrate+product)*100], mean (n=3)
Description: The Saccharomyces cerevisiae strain 334 was transformed with the vector pYES2.1-OtD6.1 by electroporation (1500 V). A yeast which was transformed with the blank vector pYES2 was used as control. The transformed yeasts were selected on complete minimal dropout uracil medium (CMdum) agar plates supplemented with 2% glucose. After the selection, in each case three transformants were selected for the further functional expression.
To express the OtD6.1 desaturase, precultures consisting of in each case 5 ml of CMdum dropout uracil liquid medium supplemented with 2% (w/v) raffinose were initially inoculated with the selected transformants and incubated for 2 days at 30° C. and 200 rpm. Then, 5 ml of CMdum (dropout uracil) liquid medium supplemented with 2% raffinose and 300 μM various fatty acids were inoculated with the precultures to an OD600 of 0.05. Expression was induced by the addition of 2% (w/v) galactose. The cultures were incubated for a further 96 hours at 20° C.
The yeast cells from the main cultures were harvested by centrifugation (100×g, 5 min, 20° C.) and washed with 100 mM NaHCO3, pH 8.0 to remove residual medium and fatty acids. The yeast cell sediments were extracted for 4 hours using chloroform/methanol (1:1). The resulting organic phase was extracted with 0.45% NaCl, dried with Na2SO4 and evaporated in vacuo. Applying thin-layer chromatography (horizontal tank, chloroform:methanol:acetic acid 65:35:8), the lipid extract was separated further into the lipid classes phosphatidylcholine (PC), phosphatidylinosotol (PI), phosphatidylserine (PS), phsophatidylethanolamine (PE) and neutral lipids (NL). The various separated spots on the thin-layer plate were scraped off. For the gas-chromatographic analysis, fatty acid methyl esters (FAMEs) were prepared by acid methanolysis. To this end, the cell sediments were incubated for one hour at 80° C. together with 2 ml of 1 N methanolic sulfuric acid and 2% (v/v) dimethoxypropane. The FAMEs were extracted twice with petroleum ether (PE). To remove nonderivatized fatty acids, the organic phases were washed in each case once with 2 ml of 100 mM NaHCO3, pH 8.0 and 2 ml of distilled water. Thereafter, the PE phases were dried with Na2SO4, evaporated under argon and taken up in 100 μl of PE. The samples were separated on a DB-23 capillary column (30 m, 0.25 mm, 0.25 μm, Agilent) in a Hewlett-Packard 6850 gas chromatograph equipped with flame ionization detector. The conditions for the GLC analysis were as follows: the oven temperature was programmed from 50° C. to 250° C. with a 5° C./min increment and finally 10 min at 250° C. (holding).
The signals were identified by comparing the retention times with corresponding fatty acid standards (Sigma). The methodology is described for example in Napier and Michaelson, 2001, Lipids. 36(8):761-766; Sayanova et al., 2001, Journal of Experimental Botany. 52(360):1581-1585, Sperling et al., 2001, Arch. Biochem. Biophys. 388(2):293-298 and Michaelson et al., 1998, FEBS Letters. 439(3):215-218.
The substrate specificity of OtDes6.1 was determined after expression and after feeding various fatty acids. The substrates fed can be detected in large amounts in all of the transgenic yeasts. […]
The yeasts which had been transformed with the vector pYES2-OtDes6.1 were grown in minimal medium in the presence of the stated fatty acids. […] Thereafter, the FAMEs were analyzed via GLC. […] The activity corresponds to the conversion rate calculated using the formula [[…]].

OtD6 + PSE1 + PtD5 = test: Reconstitution of the PUFA biosynthesis in yeast, total fatty acids; format: cell-based; details: to DHGLA and DHSTA, FIG. 5
Description: The yeast cells from the main cultures were harvested by centrifugation (100×g, 5 min, 20° C.) and washed with 100 mM NaHCO3, pH 8.0 to remove residual medium and fatty acids. The yeast cell sediments were extracted for 4 hours using chloroform/methanol (1:1). The resulting organic phase was extracted with 0.45% NaCl, dried with Na2SO4 and evaporated in vacuo. […] For the gas-chromatographic analysis, fatty acid methyl esters (FAMEs) were prepared by acid methanolysis. To this end, the cell sediments were incubated for one hour at 80° C. together with 2 ml of 1 N methanolic sulfuric acid and 2% (v/v) dimethoxypropane. The FAMEs were extracted twice with petroleum ether (PE). To remove nonderivatized fatty acids, the organic phases were washed in each case once with 2 ml of 100 mM NaHCO3, pH 8.0 and 2 ml of distilled water. Thereafter, the PE phases were dried with Na2SO4, evaporated under argon and taken up in 100 μl of PE. The samples were separated on a DB-23 capillary column (30 m, 0.25 mm, 0.25 μm, Agilent) in a Hewlett-Packard 6850 gas chromatograph equipped with flame ionization detector. The conditions for the GLC analysis were as follows: the oven temperature was programmed from 50° C. to 250° C. with a 5° C./min increment and finally 10 min at 250° C. […]
The parameters measured were the total fatty acids.

[2] = system: elongase OtElo2 (Δ6-elongase); format: cell-based, Ostreococcus tauri
Description: (§1) The Saccharomyces cerevisiae strain 334 was transformed with the vector pOTE1 or pOTE2, respectively, by electroporation (1500 V). A yeast which was transformed with the blank vector pYES2 was used as control. The transformed yeasts were selected on complete minimal dropout uracil medium (CMdum) agar plates supplemented with 2% glucose. After the selection, in each case three transformants were selected for the further functional expression.
To express the Ot elongases, precultures consisting of in each case 5 ml of CMdum dropout uracil liquid medium supplemented with 2% (w/v) raffinose were initially inoculated with the selected transformants and incubated for 2 days at 30° C. and 200 rpm. Then, 5 ml of CMdum (dropout uracil) liquid medium supplemented with 2% raffinose and 300 μM various fatty acids were inoculated with the precultures to an OD600 of 0.05. Expression was induced by the addition of 2% (w/v) galactose. The cultures were incubated for a further 96 hours at 20° C. […]
The substrate specificity of OtElo2 (SEQ ID NO: 1) was determined after expression and after feeding various fatty acids (Tab. 3). The substrates fed can be detected in large amounts in all of the transgenic yeasts. […]
The yeasts which had been transformed with the vector pOTE2 were grown in minimal medium in the presence of the fatty acids stated. […] Thereafter, the FAMEs were analyzed by GLC. […]

[3] = system: elongase OtElo1 (Δ5-elongase); format: cell-based, Ostreococcus tauri; details: for Conversion rate (in %): yeast transformed with pOTE1, grown in presence of the fatty acid, FAMEs by GLC, mean (n=3) ± standard deviation
Description: as §1
To express the Ot elongases, precultures consisting of in each case 5 ml of CMdum dropout uracil liquid medium supplemented with 2% (w/v) raffinose were initially inoculated with the selected transformants and incubated for 2 days at 30° C. and 200 rpm. Then, 5 ml of CMdum (dropout uracil) liquid medium supplemented with 2% raffinose and 300 μM various fatty acids were inoculated with the precultures to an OD600 of 0.05. Expression was induced by the addition of 2% (w/v) galactose. The cultures were incubated for a further 96 hours at 20° C.
The yeast cells from the main cultures were harvested by centrifugation (100×g, 5 min, 20° C.) and washed with 100 mM NaHCO3, pH 8.0 to remove residual medium and fatty acids. Starting with the yeast cell sediments, fatty acid methyl esters (FAMEs) were prepared by acid methanolysis. To this end, the cell sediments were incubated for one hour at 80° C. together with 2 ml of 1 N methanolic sulfuric acid and 2% (v/v) of dimethoxypropane. The FAMEs were extracted twice with petroleum ether (PE). To remove nonderivatized fatty acids, the organic phases were washed in each case once with 2 ml of 100 mM NaHCO3, pH 8.0 and 2 ml of distilled water. […]
The substrate specificity of OtElo1 was determined after expression and after feeding various fatty acids (Tab. 2). The substrates fed can be detected in large amounts in all of the transgenic yeasts. […]
The yeasts which had been transformed with the vector pOTE1 were grown in minimal medium in the presence of the fatty acids stated. […] Thereafter, the FAMEs were analyzed by GLC. […]

What does the source list for `CCCCCC/C=C\CCCCCCCC(=O)O` [16:1^Δ9, palmitoleic acid]?
Activity of OtDes6.1, in words [1]: markedly less pronounced; Activity in % [1]: 5.6%

How did the “Activity of OtDes6.1, in words” value [1] turn out when `CCCCC/C=C\C/C=C\CCCCCCCC(=O)O` [18:2^Δ9,12, linoleic acid] was run?
The value was “highest activities”.

What about the Activity in % [1] of the same compound?
The Activity in % was 68.7%.

How did the “Elongation of the OtDes6.1 reaction products in the presence of the Δ6-elongase PSE1” value (OtD6 + PSE1 + PtD5) turn out when `CCCCC/C=C\C/C=C\C/C=C\CCCCC(=O)O` [18:3^Δ6,9,12, γ-linolenic acid] was run?
The value was “almost quantitatively”.

What about the “Conversion rate (in %)” value [2] of the same compound?
Its value is 15.3%.

`CC/C=C\C/C=C\C/C=C\CCCCCCCC(=O)O` [18:3^Δ9,12,15, linolenic acid] was tested. Which Activity in % [1] did it give?
Its Activity in % is 64.6%.

How did the “Elongation of the OtDes6.1 reaction products in the presence of the Δ6-elongase PSE1” value (OtD6 + PSE1 + PtD5) turn out when `CC/C=C\C/C=C\C/C=C\C/C=C\CCCCC(=O)O` [18:4^Δ6,9,12,15, stearidonic acid] was run?
The value was “almost quantitatively”.

And the “Conversion rate (in %)” value ([2]; yeast transformed with pOTE2, grown in presence of the fatty acid, FAMEs by GLC, mean (n=3) ± standard deviation)?
Its value is 21.1%.

Which results are given for `CCCCC/C=C\C/C=C\C/C=C\C/C=C\CCCC(=O)O` [20:4^Δ5,8,11,14, arachidonic acid]?
Elongation by OtElo1, in words ([3]; Table 2, FIG. 2 and 3): capable of elongating; Conversion rate (in %) [3]: 10.8 ± 0.6%

How did the “Conversion rate (in %)” value [3] turn out when `CC/C=C\C/C=C\C/C=C\C/C=C\C/C=C\CCCC(=O)O` [20:5^Δ5,8,11,14,17, eicosapentaenoic acid] was run?
The value was 46.8 ± 3.6%.
